Assay results reported in ChEMBL document CHEMBL5550210, “Discovery of Novel α,β-Unsaturated Amide Derivatives as Candidate Antifungals to Overcome Fungal Resistance” (J Med Chem, 2024).

Experiment: Acute toxicity in Kunming male mouse assessed as liver damage at 100 mg/kg,po administrated for 7 days by hematoxylin and eosin staining based microscopic analysis
Type: organism-based
Conditions: in vivo, 168 h, time 7 day

## CCCCNC(=O)/C=C/c1ccc(COC(Cn2ccnc2)c2ccc(Cl)cc2Cl)cc1 (stereo unspecified)
  Activity: Toxic
